The target of one data set is T1, hTP (Homo sapiens, UniProt P21731).
T1 sequence (P21731 1-343): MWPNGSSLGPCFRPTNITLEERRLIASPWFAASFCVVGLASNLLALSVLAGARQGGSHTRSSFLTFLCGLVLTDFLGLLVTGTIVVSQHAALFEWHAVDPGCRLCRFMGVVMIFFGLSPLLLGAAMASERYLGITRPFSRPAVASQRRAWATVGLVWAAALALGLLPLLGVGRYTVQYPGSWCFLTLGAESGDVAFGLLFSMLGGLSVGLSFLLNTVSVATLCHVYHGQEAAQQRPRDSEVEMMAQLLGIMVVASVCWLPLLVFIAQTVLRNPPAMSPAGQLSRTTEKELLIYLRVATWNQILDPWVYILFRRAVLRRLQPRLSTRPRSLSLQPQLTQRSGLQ
Nature of the data set: Other receptors functional EC50: hTP. The format is cell-based. The source says: (§1) U.S. patent application Ser. No. 11/553,143, filed on Oct. 26, 2006, now issued as U.S. Pat. No. 7,427,685 incorporated by reference herein, describes the methods used to obtain the in vitro data in the tables below.

The next data set has as its target T2, hDP (Homo sapiens, UniProt Q13258).
T2 sequence (Q13258 1-359): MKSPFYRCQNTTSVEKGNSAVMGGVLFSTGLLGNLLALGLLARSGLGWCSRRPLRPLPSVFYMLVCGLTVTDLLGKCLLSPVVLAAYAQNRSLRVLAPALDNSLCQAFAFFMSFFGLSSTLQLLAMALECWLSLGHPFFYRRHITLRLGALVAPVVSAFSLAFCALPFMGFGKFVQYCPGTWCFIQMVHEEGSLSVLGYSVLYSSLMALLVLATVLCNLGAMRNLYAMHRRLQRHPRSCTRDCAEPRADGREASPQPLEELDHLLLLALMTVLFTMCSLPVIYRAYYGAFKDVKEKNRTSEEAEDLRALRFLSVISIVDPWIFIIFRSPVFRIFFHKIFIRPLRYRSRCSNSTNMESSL
Nature of the data set: Other receptors functional EC50: hDP. The format is cell-based.
Description: as §1

Data set [1] has as its system normotensive dogs. Nature of the data set: Ocular surface hyperemia in normotensive dogs. Set-up: scale not given here. The format is in vivo. The source says: (§2) U.S. Pat. No. 7,091,231 describes the methods used for these in vivo tests.
In data set [2] the test system is normotensive dogs. Nature of the data set: Intraocular pressure in normotensive dogs. The note with it: once daily for 5 days. The format is in vivo.
Description: as §2

The target of data set [3] is T3, EP2 (Homo sapiens, UniProt P43116). Nature of the data set: EP2 cAMP assay. The format is cell-based.
T3 sequence (P43116 whole entry): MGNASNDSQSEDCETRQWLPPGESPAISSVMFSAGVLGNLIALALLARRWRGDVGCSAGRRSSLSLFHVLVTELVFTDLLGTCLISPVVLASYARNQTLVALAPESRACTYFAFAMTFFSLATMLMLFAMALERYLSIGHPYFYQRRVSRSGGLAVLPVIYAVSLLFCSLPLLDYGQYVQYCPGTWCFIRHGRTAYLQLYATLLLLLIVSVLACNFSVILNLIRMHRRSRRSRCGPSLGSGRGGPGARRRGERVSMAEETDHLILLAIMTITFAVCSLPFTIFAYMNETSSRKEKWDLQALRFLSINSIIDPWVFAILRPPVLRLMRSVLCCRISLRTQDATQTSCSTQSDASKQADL
Description: as §1
In general terms: cAMP levels reflect the balance of adenylyl cyclase and phosphodiesterase activity.

Data set [4] addresses T4, EP4 (Homo sapiens, UniProt P35408). Nature of the data set: EP4 flipr functional assay. The note with it: read-out: EP4 data filpr EC50. The format is cell-based.
Description: as §1

In the next data set the target is T5, hEP3A (Homo sapiens, UniProt P43115).
T5 sequence (P43115 1-390): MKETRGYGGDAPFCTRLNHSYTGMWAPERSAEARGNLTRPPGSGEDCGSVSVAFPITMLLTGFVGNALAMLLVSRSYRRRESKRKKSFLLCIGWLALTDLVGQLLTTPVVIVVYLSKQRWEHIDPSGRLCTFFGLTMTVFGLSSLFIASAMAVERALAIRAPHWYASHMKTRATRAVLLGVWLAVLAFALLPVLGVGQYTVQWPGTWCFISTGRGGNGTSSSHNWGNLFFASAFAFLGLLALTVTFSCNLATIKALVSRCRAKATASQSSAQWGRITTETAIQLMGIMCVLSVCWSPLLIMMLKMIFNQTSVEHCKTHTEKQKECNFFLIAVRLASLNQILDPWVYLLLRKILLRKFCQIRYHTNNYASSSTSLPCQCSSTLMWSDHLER
Nature of the data set: Other receptors functional EC50: hEP3A. The format is cell-based.
Description: as §1

In data set [5] the target is T4, EP4. Nature of the data set: EP4 binding (KI).
Description: as §1

In data set [6] the target is T3, EP2. Nature of the data set: EP2 binding (KI).
Description: as §1

Data set [7] has as its target T3, EP2. Nature of the data set: EP2 flipr functional assay. The format is cell-based.
Description: as §1

Setting [8] is: 0.001%, once daily for 5 days, at 50 h.

Consider 13 molecules from patent US7947732B2, “Therapeutic substituted chlorocyclopentanols” (Allergan, Inc., priority 2007, dated 2011).

Structures can show the parent of a compound that is named as a salt. Where two headings read alike, the source gives them in different places.

T4 sequence (P35408 whole entry): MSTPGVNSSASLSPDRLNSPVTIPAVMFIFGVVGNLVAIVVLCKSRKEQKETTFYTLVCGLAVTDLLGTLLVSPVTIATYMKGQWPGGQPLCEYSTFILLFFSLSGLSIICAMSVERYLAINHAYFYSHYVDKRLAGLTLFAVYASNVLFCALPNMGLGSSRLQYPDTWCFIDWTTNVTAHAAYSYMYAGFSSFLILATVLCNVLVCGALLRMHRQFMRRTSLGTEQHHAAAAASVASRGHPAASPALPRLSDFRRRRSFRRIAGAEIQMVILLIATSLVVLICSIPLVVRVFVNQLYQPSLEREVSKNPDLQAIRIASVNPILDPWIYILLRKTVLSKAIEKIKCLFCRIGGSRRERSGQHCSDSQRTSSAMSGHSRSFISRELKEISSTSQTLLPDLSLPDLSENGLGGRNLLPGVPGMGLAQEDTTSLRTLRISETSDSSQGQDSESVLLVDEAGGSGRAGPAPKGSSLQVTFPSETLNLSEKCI

`O=C(O)c1ccc(CCC[C@@H]2[C@@H](CSc3cc(F)cc(F)c3)[C@H](O)C[C@H]2Cl)s1`: the EC50 (commonly the concentration needed to bring the measured effect to its halfway point) was determined as 5.31 µM at hTP and 9.69 µM on hDP.
For the molecule `CCN(CC)CCOC(=O)c1ccc(CCC[C@@H]2[C@@H](CCc3cc(Cl)cc(Cl)c3)[C@H](O)C[C@H]2Cl)s1` [2-(Diethylamino)ethyl 5-(3-((1R,2R,3R,5R)-5-chloro-2-(3,5-dichlorophenethyl)-3-hydroxycyclopentyl)propyl)thiophene-2-carboxylate hydrochloride], the “maximum ocular surface hyperemia (OSH) score” value in the data set with normotensive dogs [1] (0.0005%, once daily for 5 days, at 98 h) is on record as 1.25. Further, in the data set with normotensive dogs [2] (0.0005%, at 28 h), the “maximum intraocular pressure (IOP) decrease from baseline” value is on record as 5.3 mmHg. Moreover, in the data set with normotensive dogs [2] (Canis lupus familiaris, 0.0005%, at 28 h, read-out: maximum intraocular pressure (IOP) decrease from baseline), the inhibition in vivo at 0.0005 % is 33%.
Regarding `CCN(CC)CCOC(=O)c1ccc(CCC[C@@H]2[C@@H](CCc3cc(Cl)cc(Cl)c3)[C@H](O)C[C@H]2Cl)s1` [2-(Diethylamino)ethyl 5-(3-((1R,2R,3R,5R)-5-chloro-2-(3,5-dichlorophenethyl)-3-hydroxycyclopentyl)propyl)thiophene-2-carboxylate], the “maximum ocular surface hyperemia (OSH) score” value with normotensive dogs [1] (0.001%, once daily for 5 days, at 28 h) came to 1.8. For the same molecule, the “maximum intraocular pressure (IOP) decrease from baseline” value with normotensive dogs [2] (0.001%, at 78 h) was determined as 6.9 mmHg. Also, the inhibition in vivo at 0.001 % in the data set on normotensive dogs [2] (Canis lupus familiaris, 0.001%, at 78 h, read-out: maximum intraocular pressure (IOP) decrease from baseline) was 47%.
For the molecule `O=C(O)c1ccc(CCC[C@@H]2[C@@H](CCc3cc(Cl)cc(Cl)c3)[C@H](O)C[C@H]2Cl)s1` [5-(3-((1R,2R,3R,5R)-5-chloro-2-(3,5-dichlorophenethyl)-3-hydroxycyclopentyl)propyl)thiophene-2-carboxylic acid], the “maximum ocular surface hyperemia (OSH) score” value with normotensive dogs [1] (0.0001%, once daily for 5 days, at 74 h) amounted to 0.8; with normotensive dogs [1] (0.0005%, once daily for 5 days, at 50 h), 1.75; in the data set with normotensive dogs [1] (setting [8]), 1.8; with normotensive dogs [1] (0.01%, once daily for 5 days, at 26 h), 2.5.
Consider `O=C(O)c1ccc(CCC[C@@H]2[C@@H](C[S+]([O-])c3cc(Cl)cc(Cl)c3)[C@H](O)C[C@H]2Cl)s1` (stereo partly drawn) [5-(3-((1R,2R,3R,5R)-5-chloro-2-((3,5-dichlorophenylsulfinyl)methyl)-3-hydroxycyclopentyl)propyl)thiophene-2-carboxylic acid], for which the “maximum ocular surface hyperemia (OSH) score” value in the data set with normotensive dogs [1] (0.005%, once daily for 5 days, at 30 h) stood at 1.4. Moreover, in the data set with normotensive dogs [2] (0.005%, at 4 h), the “maximum intraocular pressure (IOP) decrease from baseline” value was determined as 3.1 mmHg. The inhibition in vivo at 0.005 % in the data set with normotensive dogs [2] (Canis lupus familiaris, 0.005%, at 4 h, read-out: maximum intraocular pressure (IOP) decrease from baseline) was 21%.
Consider `O=C(O)c1ccc(CCC[C@@H]2[C@@H](CSc3cc(Cl)cc(Cl)c3)[C@H](O)C[C@H]2Cl)s1` [5-(3-((1R,2R,3R,5R)-5-chloro-2-((3,5-dichlorophenylthio)methyl)-3-hydroxycyclopentyl)propyl)-thiophene-2-carboxylic acid], for which, in the data set with normotensive dogs [1] (0.01%, once daily for 5 days, at 52 h), the “maximum ocular surface hyperemia (OSH) score” value was 1.7. In addition, the “maximum intraocular pressure (IOP) decrease from baseline” value in the data set with normotensive dogs [2] (0.01%, at 6 h) came out at 6.3 mmHg. Further, in the data set with normotensive dogs [2] (Canis lupus familiaris, 0.01%, at 6 h, read-out: maximum intraocular pressure (IOP) decrease from baseline), the inhibition in vivo at 0.01 % was 35%.
Turning to `O=C(O)c1ccc(CCC[C@@H]2[C@@H](CNc3cc(Cl)cc(Cl)c3)[C@H](O)C[C@H]2Cl)s1` [5-(3-((1R,2S,3R,5R)-5-chloro-2-((3,5-dichlorophenylamino)methyl)-3-hydroxycyclopentyl)propyl)thiophene-2-carboxylic acid], in the data set on normotensive dogs [1] (0.001%, once daily for 5 days, at 76 h), the “maximum ocular surface hyperemia (OSH) score” value was 1.5. The “maximum intraocular pressure (IOP) decrease from baseline” value with normotensive dogs [2] (0.001%, at 6 h) stood at 2.6 mmHg. The inhibition in vivo at 0.001 % in the data set on normotensive dogs [2] (Canis lupus familiaris, 0.001%, at 6 h, read-out: maximum intraocular pressure (IOP) decrease from baseline) worked out at 18%.
As to `O=C(O)CCCCCC[C@@H]1[C@@H](CCc2cc(Cl)cc(Cl)c2)[C@H](O)C[C@H]1Cl` [7-{(1R,2R,3R,5R)-5-Chloro-2-[2-(3,5-dichloro-phenyl)-ethyl]-3-hydroxy-cyclopentyl}-heptanoic acid], the “maximum ocular surface hyperemia (OSH) score” value with normotensive dogs [1] (0.01%, once daily for 5 days, at 74 h) is reported as 0.8.
For the molecule `O=C(O)c1ccc(CCC[C@@H]2[C@@H](CCc3cc(Cl)nc(Cl)c3)[C@H](O)C[C@H]2Cl)s1` [11b, 5-(3-((1R,2R,3R,5R)-5-chloro-2-(2-(2,6-dichloropyridin-4-yl)ethyl)-3-hydroxycyclopentyl)propyl)-thiophene-2-carboxylic acid], the “maximum ocular surface hyperemia (OSH) score” value in the data set on normotensive dogs [1] (0.001%, once daily for 4 days, at 74 h) is listed as 1.9.
For `O=C(O)c1ccc(CCC[C@@H]2[C@@H](CCc3cc(Cl)cc(CO)c3)[C@H](O)C[C@H]2Cl)s1` [11c, 5-(3-((1R,2R,3R,5R)-5-chloro-2-(3-chloro-5-(hydroxymethyl)phenethyl)-3-hydroxycyclopentyl)propyl)thiophene-2-carboxylic acid], the “maximum ocular surface hyperemia (OSH) score” value with normotensive dogs [1] (setting [8]) was 0.8.
As for `CC(C)OC(=O)c1ccc(CCC[C@@H]2[C@@H](CCc3cc(Cl)cc(CO)c3)[C@H](O)C[C@H]2Cl)s1` [Isopropyl 5-(3-((1R,2R,3R,5R)-5-chloro-2-(3-chloro-5-(hydroxymethyl)phenethyl)-3-hydroxycyclopentyl)propyl)thiophene-2-carboxylate], the “maximum ocular surface hyperemia (OSH) score” value in the data set on normotensive dogs [1] (0.001%, once daily for 5 days, at 26 h) is given as 0.9.
Consider `O=C(O)c1ccc(CCC[C@@H]2[C@@H](CNc3cc(Cl)cc(Cl)c3)[C@H](O)C[C@H]2Cl)s1` [drawing 6], for which the concentration for a half-maximal effect (EC50) came to 0.09 nM at EP2 [3], 5.58 µM on EP4 [4], 7.14 µM on hEP3A and 20 nM on EP2 [7]. In addition, the Ki (in general, a dissociation constant, usually derived from enzyme kinetics or from competition with a known ligand) at EP4 [5] was 678 nM; at EP2 [6] it was 1.5 nM.
For `O=C(O)c1ccc(CCC[C@@H]2[C@@H](C[S+]([O-])c3cc(Cl)cc(Cl)c3)[C@H](O)C[C@H]2Cl)s1` (some centres unmarked) [drawing 8], the Ki at EP4 [5] is more than 1000 nM.
